Laboratory results taken from ChEMBL document CHEMBL1201862, “PubChem BioAssay data set” (2004).
Active and inactive are the calls of the source.

Key:
[1] = target: Alkaline phosphatase, placental type (Homo sapiens, UniProt P05187); test: human placental alkaline phosphatase inhibition – biochemical, luminescence, confirmation (AID 1512); type: functional
[2] = target: T1, Alkaline phosphatase, tissue-nonspecific isozyme (Homo sapiens, UniProt P05186); test: potency against alkaline phosphatase TNAP – biochemical, luminescent, dose response, SAR follow-up (AID 1056)
T1 sequence (P05186 whole entry): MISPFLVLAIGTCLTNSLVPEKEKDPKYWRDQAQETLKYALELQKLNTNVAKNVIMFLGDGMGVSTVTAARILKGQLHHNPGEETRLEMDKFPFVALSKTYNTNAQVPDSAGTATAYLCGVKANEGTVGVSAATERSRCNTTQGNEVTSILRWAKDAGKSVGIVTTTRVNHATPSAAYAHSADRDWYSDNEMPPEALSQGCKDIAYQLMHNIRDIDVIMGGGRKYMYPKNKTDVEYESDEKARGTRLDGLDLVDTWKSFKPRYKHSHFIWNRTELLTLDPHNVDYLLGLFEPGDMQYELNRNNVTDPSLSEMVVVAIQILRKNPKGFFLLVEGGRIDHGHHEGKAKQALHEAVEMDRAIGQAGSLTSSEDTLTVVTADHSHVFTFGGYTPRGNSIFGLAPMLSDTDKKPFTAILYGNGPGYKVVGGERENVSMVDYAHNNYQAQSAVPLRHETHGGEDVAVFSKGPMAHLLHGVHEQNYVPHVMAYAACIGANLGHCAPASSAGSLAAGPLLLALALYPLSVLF

[3] = target: Glyceraldehyde-3-phosphate dehydrogenase (Homo sapiens, UniProt P04406)
Glyceraldehyde-3-phosphate dehydrogenase, sequence (P04406 whole entry): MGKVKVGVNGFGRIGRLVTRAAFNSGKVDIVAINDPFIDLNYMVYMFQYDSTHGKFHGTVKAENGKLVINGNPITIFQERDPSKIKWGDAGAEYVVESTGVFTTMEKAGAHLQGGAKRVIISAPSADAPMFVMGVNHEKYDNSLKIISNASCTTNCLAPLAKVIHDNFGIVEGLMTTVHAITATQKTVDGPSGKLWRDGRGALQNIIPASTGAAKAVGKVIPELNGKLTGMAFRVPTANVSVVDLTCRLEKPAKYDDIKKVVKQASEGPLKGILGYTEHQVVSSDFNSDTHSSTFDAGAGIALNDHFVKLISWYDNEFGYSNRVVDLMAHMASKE

[4] = luciferase reporter signal suppression in cells – H4 neuroglioma cells, luminescence, dose response (AID 1990); type: functional, cell-based
J774.A1 = test: Confirmation of image-based Screening Assay for Inhibitors of Phagocytosis. [Related pubchem assays (depositor defined):AID1029, AID1643]; type: functional, cell-based; conditions: Mus musculus
[5] = Luminescence Cell-Based Dose Response HTS to Identify Inhibitors of 5'UTR Stem-Loop Driven Prion Protein mRNA Translation in H4 Neuroglioblastoma Cells. [Related pubchem assays: 1827 (Project Summary), 1813 (Primary HTS)]; type: functional
BJ [6] = test: BJ-TERT-LT-ST fibroblast viability loss – cell-based, RAS-independent, luminescence, dose response (AID 1935); type: functional; conditions: Homo sapiens;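 further: BJ fibroblasts immortalized with TERT plus LT and ST oncogenes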
[7] = DRD fibroblast viability loss – cell-based, non-viral oncogenic, luminescence, dose response (AID 1934); type: functional; conditions: Homo sapiens
BJ [8] = test: cells; type: functional, cell-based; conditions: Homo sapiens
[9] = HEK-293T viability loss after treatment – luminescence, T-cell screen hits, cytotoxicity control for TCR NF-kB inhibitor project, dose response (AID 489026); type: functional, cell-based;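 further: cells exposed to compound about 14 hours before the viability readout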
BJ [10] = test: BJ-TERT fibroblast viability loss – cell-based, RAS-independent, luminescence, dose response (AID 1933); type: functional; conditions: Homo sapiens
[11] = alpha-synuclein stem-loop luciferase translation blockers – H4 neuroglioma cells, luminescence, confirmation (AID 1988); type: functional, cell-based
BJ [12] = test: growth inhibition of engineered Ras-driven BJ cells – cell-based, alamar blue fluorescence, cherrypicked samples, dose response (AID 2631); type: functional; conditions: Homo sapiens;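 further: confirmatory dose-response assay in RAS-dependent BJ fibroblasts engineered with TERT, LT and ST, with cytotoxicity read by fluorescence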
Paired box protein Pax-8 = Paired box protein Pax-8 (Homo sapiens, UniProt Q06710); test: PAX8 transcriptional activity inhibition in RMG-I – RMG-I cells, luciferase, cherry-pick, dose response (AID 687027); type: functional, cell-based;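 further: luciferase reporter driven by Pax8 target thyroperoxidase promoter measured by SteadyGlo luminescence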
Paired box protein Pax-8, sequence (Q06710 whole entry): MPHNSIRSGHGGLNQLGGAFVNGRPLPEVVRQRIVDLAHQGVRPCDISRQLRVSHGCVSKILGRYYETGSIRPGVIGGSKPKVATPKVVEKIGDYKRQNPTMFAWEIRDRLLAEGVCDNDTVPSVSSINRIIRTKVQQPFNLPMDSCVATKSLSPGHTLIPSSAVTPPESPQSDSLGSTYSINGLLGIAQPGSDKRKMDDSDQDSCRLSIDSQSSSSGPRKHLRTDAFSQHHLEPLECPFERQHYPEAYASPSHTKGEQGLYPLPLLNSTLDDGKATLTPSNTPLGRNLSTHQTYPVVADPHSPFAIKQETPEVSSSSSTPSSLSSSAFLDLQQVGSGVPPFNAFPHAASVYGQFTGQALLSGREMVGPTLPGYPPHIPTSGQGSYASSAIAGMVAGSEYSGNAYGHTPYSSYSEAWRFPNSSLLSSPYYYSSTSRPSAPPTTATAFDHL

[13] = A549 cell cytotoxicity, dose response, cytotoxicity control, plate reader, cherry-pick, antagonist series (AID 743412); type: functional, cell-based
[14] = Luminescence Cell-Based Dose Response HTS to Identify Activators of Luciferase Translation or Activity in H4 […] Cells. [Related pubchem assays: 1829 (Project Summary), 1814 (Primary HTS)]; type: functional
INS1 = test: INS-1E survival protection against cytokine death – cell-based, luminescence, retest, dose response (AID 449756); type: functional; conditions: Rattus norvegicus;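 further: cell death triggered by IL-1 beta plus TNF-alpha plus IFN-gamma mixture; protective hits raise ATP signal compared with cytokine alone wells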
[15] = target: G-protein coupled receptor 55 (Homo sapiens, UniProt Q9Y2T6); test: selective activators of receptor GPR55 – imaging, U2OS cells, beta-arrestin-GFP redistribution, primary screen (AID 1961); type: functional
G-protein coupled receptor 55, sequence (Q9Y2T6 whole entry, the tested form may be a part): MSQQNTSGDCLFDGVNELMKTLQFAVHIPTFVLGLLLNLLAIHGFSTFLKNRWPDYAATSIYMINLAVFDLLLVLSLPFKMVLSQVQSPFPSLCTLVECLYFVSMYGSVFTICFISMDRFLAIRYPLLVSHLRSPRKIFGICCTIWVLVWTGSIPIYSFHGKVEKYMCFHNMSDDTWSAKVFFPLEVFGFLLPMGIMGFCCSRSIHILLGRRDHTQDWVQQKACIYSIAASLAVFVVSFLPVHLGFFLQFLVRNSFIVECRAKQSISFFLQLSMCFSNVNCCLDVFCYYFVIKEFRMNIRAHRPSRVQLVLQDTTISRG

[16] = target: Photoreceptor-specific nuclear receptor (Homo sapiens, UniProt Q9Y5X4); type: functional, cell-based;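 further: CHO-S cells with Gal4-NCOR and VP16-NR2E3 two-hybrid luciferase reporter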
Photoreceptor-specific nuclear receptor, sequence (Q9Y5X4 whole entry, the tested form may be a part): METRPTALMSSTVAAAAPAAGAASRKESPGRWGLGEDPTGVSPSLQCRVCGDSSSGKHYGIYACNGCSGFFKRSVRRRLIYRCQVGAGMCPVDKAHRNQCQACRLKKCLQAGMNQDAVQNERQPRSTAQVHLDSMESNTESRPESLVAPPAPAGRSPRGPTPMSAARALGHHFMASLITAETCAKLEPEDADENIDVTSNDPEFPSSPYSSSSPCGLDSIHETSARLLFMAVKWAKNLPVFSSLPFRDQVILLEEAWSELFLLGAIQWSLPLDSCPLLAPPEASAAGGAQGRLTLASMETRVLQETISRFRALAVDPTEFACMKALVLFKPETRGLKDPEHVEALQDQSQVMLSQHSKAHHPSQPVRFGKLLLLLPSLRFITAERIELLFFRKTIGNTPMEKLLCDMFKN

[17] = blockers of bursicon-stimulated LGR2 cAMP reporter – cell-based, HEK293, CRE-luciferase reporter, cherry pick, set 2, dose response (AID 743343); type: functional;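 further: transfected cells were stimulated with diluted bursicon conditioned medium after compound addition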
[18] = viability of HCT116 lacking mutant beta-catenin – cell-based, human colon tumor, dose response (AID 1045); type: functional;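 further: HCT116 colon tumor cells with beta catenin knocked out; cells exposed to compound for 60 hours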
[19] = viability of PTEN-deleted HCT116 cells – cell-based, HCT116 PTEN knockout, dose response (AID 1047); type: functional;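 further: HCT116 colon tumor cells with PTEN knocked out; cells exposed to compound for 60 hours before readout; potency for loss of cell viability measured by luminescence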
H4 = test: Luminescence Cell-Based Dose Response HTS to Identify Activators of 5'UTR Stem-Loop Driven Prion Protein mRNA Translation in H4 Neuroglioblastoma Cells. [Related pubchem assays: 1829 (Project Summary), 1814 (Primary HTS)]; type: functional; conditions: Homo sapiens
[20] = reduced cellular PGC1a acetyl-lysine signal – cell-based, cherry-picked samples, dose response (AID 720514); type: functional;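 further: potency may reflect raised or lowered acetylation signal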
[21] = blockade of melanocortin 4 receptor signaling – cell-based, plate reader, cherry pick, counter-screen for LGR2 antagonist project, dose response (AID 743444); type: functional;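 further: transfected HEK 293 cells stimulated with alpha-MSH peptide; potency of inhibitors of the alpha-MSH evoked signal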
[22] = viability loss in HEK293 cells – cell-based, plate reader, cherry-picked samples, cytotoxicity control, dose response (AID 743446); type: functional
[23] = Luminescence Cell-Based Dose Confirmation HTS to Identify Activators of 5'UTR Stem-Loop Driven Alpha-Synuclein mRNA Translation in H4 Neuroglioblastoma Cells. [Related pubchem assays: 1829 (Project Summary), 1814 (Primary HTS)]; type: functional
[24] = target: T2, Sphingosine 1-phosphate receptor 4 (Homo sapiens, UniProt O95977); test: Fluorescence dose response cell-based high throughput screening assay for antagonists of the Sphingosine 1-Phosphate Receptor 4 (S1P4). [Related pubchem assays: 1524 (Confirmation in triplicates.), 1510 (Primary screen.)]; type: functional
T2 sequence (O95977 whole entry): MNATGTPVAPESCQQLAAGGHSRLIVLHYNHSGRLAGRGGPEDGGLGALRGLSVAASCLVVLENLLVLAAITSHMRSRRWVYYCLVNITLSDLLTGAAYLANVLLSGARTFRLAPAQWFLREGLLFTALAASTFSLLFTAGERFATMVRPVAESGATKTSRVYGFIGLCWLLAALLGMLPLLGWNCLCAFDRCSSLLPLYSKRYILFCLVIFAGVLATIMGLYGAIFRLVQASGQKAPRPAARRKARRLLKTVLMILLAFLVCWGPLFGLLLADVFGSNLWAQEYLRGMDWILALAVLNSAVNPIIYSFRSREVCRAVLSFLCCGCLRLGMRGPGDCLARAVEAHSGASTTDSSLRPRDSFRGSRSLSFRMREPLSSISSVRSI

[25] = target: Sphingosine 1-phosphate receptor 1 (Homo sapiens, UniProt P21453); type: functional;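 further: Tango beta-arrestin reporter U2OS cells stimulated with S1P near its EC80; inhibitor potency meaning antagonism of receptor activation by the natural agonist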
Sphingosine 1-phosphate receptor 1, sequence (P21453 whole entry): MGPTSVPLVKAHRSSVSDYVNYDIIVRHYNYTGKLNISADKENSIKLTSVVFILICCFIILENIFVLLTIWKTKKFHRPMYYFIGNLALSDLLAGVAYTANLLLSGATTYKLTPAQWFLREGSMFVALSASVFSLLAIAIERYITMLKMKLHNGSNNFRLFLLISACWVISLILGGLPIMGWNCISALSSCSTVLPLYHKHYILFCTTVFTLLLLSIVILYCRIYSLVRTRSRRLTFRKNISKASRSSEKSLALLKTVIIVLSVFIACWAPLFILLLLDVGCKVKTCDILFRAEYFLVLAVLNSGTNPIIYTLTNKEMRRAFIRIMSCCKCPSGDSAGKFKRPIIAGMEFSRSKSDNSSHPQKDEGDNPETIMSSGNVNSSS

[26] = target: T2, Sphingosine 1-phosphate receptor 4; test: Late stage fluorescence dose response cell-based screening assay for antagonists of the Sphingosine 1-Phosphate Receptor 4 (S1P4). [Related pubchem assays: 1524 (Confirmation screen (S1P4 antagonists).), 1510 (Primary screen (S1P4 antagonists).), 1853 (Summary AID (S1P4 antagonists).), 1692 (Dose response screen (S1P4 antagonists).)]; type: functional
[27] = Fluorescence-based cell-based high throughput dose response assay for inhibitors of the interaction of nucleotide-binding oligomerization domain containing 2 (NOD2) and the receptor-interacting serine-threonine kinase 2 (RIPK2).; type: functional; conditions: Homo sapiens
[28] = toxicity toward HepG2 liver cells – cell-based, plate reader, cherry-pick, antagonist series, cytotoxicity control, dose response (AID 743416); type: functional
Beta Lactamase = Beta Lactamase (Pseudomonas aeruginosa, UniProt Q932Y6); test: BLA reporter interference, concentration series – BLA reporter cells, FRET fluorescence, artefact control for NOD2-RIPK2 interaction inhibitor project, dose response (AID 651552); type: functional, cell-based
Beta Lactamase, sequence (Q932Y6 whole entry): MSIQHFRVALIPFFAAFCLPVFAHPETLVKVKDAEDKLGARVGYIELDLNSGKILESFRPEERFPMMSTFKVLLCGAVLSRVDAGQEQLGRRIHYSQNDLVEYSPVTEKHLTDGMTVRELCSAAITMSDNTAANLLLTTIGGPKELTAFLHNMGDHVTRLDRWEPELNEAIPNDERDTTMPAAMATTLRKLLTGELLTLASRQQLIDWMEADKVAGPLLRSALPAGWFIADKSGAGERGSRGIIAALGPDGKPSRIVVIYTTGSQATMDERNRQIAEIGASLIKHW

Hexokinase = Hexokinase (Trypanosoma brucei, UniProt Q38C41); test: Confirmation assay for inhibitors of Trypanosoma brucei hexokinase 1-Analogue-first series. [Related pubchem assays (depositor defined):AID1430, AID1632, AID2516, AID2560, AID2579, AID2600, AID449725, AID492951]; type: functional
Hexokinase, sequence (Q38C41 whole entry): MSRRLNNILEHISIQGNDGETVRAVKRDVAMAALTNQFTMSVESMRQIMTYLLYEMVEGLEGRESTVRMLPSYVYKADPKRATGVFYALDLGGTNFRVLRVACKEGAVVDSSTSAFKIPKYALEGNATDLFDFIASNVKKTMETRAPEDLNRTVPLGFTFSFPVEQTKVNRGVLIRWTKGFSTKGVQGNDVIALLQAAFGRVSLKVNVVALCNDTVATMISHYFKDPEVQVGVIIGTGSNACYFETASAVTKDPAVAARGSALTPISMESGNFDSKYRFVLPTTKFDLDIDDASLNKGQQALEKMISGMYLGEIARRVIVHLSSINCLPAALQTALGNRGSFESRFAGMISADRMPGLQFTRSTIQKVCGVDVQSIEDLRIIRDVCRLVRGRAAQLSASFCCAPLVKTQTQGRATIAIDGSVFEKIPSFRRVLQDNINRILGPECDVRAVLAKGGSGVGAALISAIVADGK

Coagulation factor XII = target: T3, Coagulation factor XII (Homo sapiens, UniProt P00748); test: activated coagulation factor XII inhibitor potency, concentration-effect curve, cell-free (AID 716); type: functional
T3 sequence (P00748 whole entry): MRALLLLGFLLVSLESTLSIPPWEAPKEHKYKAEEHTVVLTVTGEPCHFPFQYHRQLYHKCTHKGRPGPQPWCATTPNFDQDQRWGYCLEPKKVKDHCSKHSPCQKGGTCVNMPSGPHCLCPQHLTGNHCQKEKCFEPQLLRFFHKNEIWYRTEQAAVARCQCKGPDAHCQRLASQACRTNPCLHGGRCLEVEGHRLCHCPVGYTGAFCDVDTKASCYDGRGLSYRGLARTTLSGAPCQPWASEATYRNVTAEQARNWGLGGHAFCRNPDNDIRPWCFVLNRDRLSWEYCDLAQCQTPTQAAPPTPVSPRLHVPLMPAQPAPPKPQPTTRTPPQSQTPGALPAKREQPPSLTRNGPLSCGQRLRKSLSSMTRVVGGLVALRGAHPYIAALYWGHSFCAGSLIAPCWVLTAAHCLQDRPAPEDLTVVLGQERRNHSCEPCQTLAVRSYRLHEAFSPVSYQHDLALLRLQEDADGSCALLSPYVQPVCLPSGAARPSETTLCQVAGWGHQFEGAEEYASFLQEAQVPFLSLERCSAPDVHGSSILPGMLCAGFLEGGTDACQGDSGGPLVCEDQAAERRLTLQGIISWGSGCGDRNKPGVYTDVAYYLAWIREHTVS

[29] = target: DNA dC->dU-editing enzyme APOBEC-3A (Homo sapiens, UniProt P31941); test: A3A deaminase inhibition for selectivity – biochemical, dose response (AID 504722); type: functional
DNA dC->dU-editing enzyme APOBEC-3A, sequence (P31941 whole entry): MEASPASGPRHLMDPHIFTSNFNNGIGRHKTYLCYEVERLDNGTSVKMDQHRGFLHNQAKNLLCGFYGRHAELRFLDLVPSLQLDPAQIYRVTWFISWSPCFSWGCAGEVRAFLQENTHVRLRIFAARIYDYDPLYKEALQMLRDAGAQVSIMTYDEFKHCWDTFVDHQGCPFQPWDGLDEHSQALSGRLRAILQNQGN

[30] = target: DNA dC->dU-editing enzyme APOBEC-3G (Homo sapiens, UniProt Q9HC16); test: Dose Response confirmation of small molecule APOBEC3G DNA Deaminase Inhibitors via a fluorescence-based single-stranded DNA deaminase assay. [Related pubchem assays (depositor defined):AID493012, AID493028]; type: functional
DNA dC->dU-editing enzyme APOBEC-3G, sequence (Q9HC16 whole entry): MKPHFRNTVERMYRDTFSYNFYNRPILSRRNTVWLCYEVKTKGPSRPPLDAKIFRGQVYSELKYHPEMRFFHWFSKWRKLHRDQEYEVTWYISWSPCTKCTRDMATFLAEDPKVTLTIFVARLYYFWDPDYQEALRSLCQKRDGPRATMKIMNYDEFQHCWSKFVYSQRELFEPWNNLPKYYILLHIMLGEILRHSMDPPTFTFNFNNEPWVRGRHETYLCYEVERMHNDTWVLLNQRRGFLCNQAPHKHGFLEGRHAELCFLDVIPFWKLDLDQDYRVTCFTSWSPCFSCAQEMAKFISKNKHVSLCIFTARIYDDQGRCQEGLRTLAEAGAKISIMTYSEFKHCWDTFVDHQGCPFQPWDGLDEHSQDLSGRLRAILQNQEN

Alkaline phosphatase, placental type, sequence (P05187 whole entry): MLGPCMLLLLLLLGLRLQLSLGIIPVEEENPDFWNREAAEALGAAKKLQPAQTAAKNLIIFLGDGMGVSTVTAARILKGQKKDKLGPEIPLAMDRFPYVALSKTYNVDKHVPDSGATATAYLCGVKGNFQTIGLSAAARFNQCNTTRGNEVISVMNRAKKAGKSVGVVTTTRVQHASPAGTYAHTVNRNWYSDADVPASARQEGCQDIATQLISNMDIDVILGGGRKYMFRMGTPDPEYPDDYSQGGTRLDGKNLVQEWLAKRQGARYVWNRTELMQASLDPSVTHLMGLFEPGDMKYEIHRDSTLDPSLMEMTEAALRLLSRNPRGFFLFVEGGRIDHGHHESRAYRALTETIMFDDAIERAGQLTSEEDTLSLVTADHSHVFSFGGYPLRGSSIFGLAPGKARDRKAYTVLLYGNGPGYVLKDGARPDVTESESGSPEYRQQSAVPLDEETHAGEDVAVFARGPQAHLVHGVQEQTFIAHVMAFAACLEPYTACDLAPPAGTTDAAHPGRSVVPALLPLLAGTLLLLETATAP

Q: Which results are given for `COc1cccc(Cc2nc(N)nn2-c2ccccc2)c1`?
A: IC50 [1]: > 100 µM (inactive); IC50 [2]: > 100 µM (inactive); IC50 [3]: > 100 µM (not active)

Q: Which EC50 [4] does the source give for `COC(=O)c1[nH]c2c(c1C)C(=O)CC(c1cccs1)C2` (configuration not stated) here?
A: 4.98 µM (active)

Q: What about the IC50 (J774.A1) of the same molecule?
A: 0.116 µM (active)

Q: And the EC50 [5]?
A: 7.34 µM (active)

Q: What about the EC50 (BJ [6]) of the same molecule?
A: 0.873 µM (inconclusive)

Q: And the EC50 [7]?
A: 0.912 µM (active)

Q: And the EC50 (BJ [8])?
A: 3.72 µM (inconclusive)

Q: And the IC50 [9]?
A: > 80 µM (inactive)

Q: And the EC50 (BJ [10])?
A: 1.02 µM (active)

Q: And the EC50 [11]?
A: 0.469 µM (active)

Q: What about the EC50 (BJ [12]) of the same molecule?
A: 0.299 µM (active)

Q: For `O=C(NCc1cccnc1)/C(=C\c1ccc(-c2ccc(Cl)c(Cl)c2)o1)S(=O)(=O)c1ccccc1`, which AC50 (Paired box protein Pax-8) is on record?
A: 4.66 µM (active)

Q: What about the AC50 [13] of the same molecule?
A: 6.6 µM (active)

Q: What about the EC50 [14] of the same molecule?
A: > 120 µM (not active)

Q: And the AC50 (INS1)?
A: 3.63 µM (active)

Q: And the EC50 [15]?
A: 1.61 µM (active)

Q: What about the IC50 [16] of the same molecule?
A: 4.08 µM (active)

Q: And the AC50 [17]?
A: 8.45 µM (active)

Q: What about the EC50 [18] of the same molecule?
A: 2.39 µM (active)

Q: What about the EC50 [19] of the same molecule?
A: 2.92 µM (active)

Q: And the EC50 (H4)?
A: > 120 µM (not active)

Q: What about the AC50 [20] of the same molecule?
A: 3.52 µM (active)

Q: What about the AC50 [21] of the same molecule?
A: 7.86 µM (active)

Q: What about the AC50 [22] of the same molecule?
A: 8.51 µM (active)

Q: What about the EC50 [23] of the same molecule?
A: > 120 µM (not active)

Q: What about the IC50 [24] of the same molecule?
A: 0.965 µM (active)

Q: What about the IC50 [25] of the same molecule?
A: 8.81 µM (active)

Q: What about the IC50 [26] of the same molecule?
A: > 50 µM (not active)

Q: And the IC50 [27]?
A: 4.34 µM (active)

Q: And the AC50 [28]?
A: 7.96 µM (active)

Q: What about the IC50 (Beta Lactamase) of the same molecule?
A: 26.7 µM (inactive)

Q: With `CCc1ccc(C(=O)Nc2cc(Br)ccc2C(=O)O)cc1` as the molecule, how does the IC50 (Hexokinase) read?
A: 5.45 µM (active)

Q: With `CC(C)(C)NC(=O)CN(C(=O)C1CSC(=O)C1)c1ccc2c(c1)OCCO2` (configuration not stated) as the molecule, how does the IC50 (Coagulation factor XII) read?
A: > 50 µM (inactive)

Q: With `Cn1c(S)nnc1-c1ccc(C(C)(C)C)cc1` as the molecule, how does the IC50 [29] read?
A: > 100 µM (inactive)

Q: And the IC50 [30]?
A: 4.79 µM (active)
